Data from ChEMBL document CHEMBL3860022, “Do cinnamylideneacetophenones have antioxidant properties and a protective effect toward the oxidation of phosphatidylcholines?” (Eur J Med Chem, 2016).
Active and inactive are the calls of the source. The rule behind the calls is not given here.

Experiments:
Format in all cases: functional
[1] = Antioxidant activity assessed as AAPH free radical scavenging activity measured every min during 240 mins by fluorescein-based oxygen radical absorption capacity assay
[2] = Antioxidant activity assessed as DPPH free radical scavenging activity after 60 mins
[3] = Antioxidant activity assessed as inhibition of fenton reaction-mediated PLPC peroxidation by measuring ratio of oxidized PLPC/unmodified PLPC at 1 mg/ml incubated in dark for 1 hr to 7 days by mass spectroscopic analysis
[4] = Antioxidant activity assessed as AAPH free radical scavenging activity by measuring trolox equivalent at 75 to 350 umol/L measured every min during 240 mins by fluorescein-based oxygen radical absorption capacity assay
[5] = Antioxidant activity assessed as inhibition of fenton reaction-mediated PLPC peroxidation by measuring ratio of dMPC/unmodified PLPC at 1 mg/ml incubated in dark for 1 hr to 7 days by mass spectroscopic analysis
[6] = Antioxidant activity assessed as inhibition of fenton reaction-mediated PLPC peroxidation at 2 mg/ml incubated in dark for 3 days by mass spectroscopic analysis
[7] = Antioxidant activity assessed as inhibition of fenton reaction-mediated PLPC peroxidation at 2 mg/ml incubated in dark for 1 hr by mass spectroscopic analysis
[8] = Antioxidant activity assessed as inhibition of fenton reaction-mediated PLPC peroxidation by measuring ratio of oxidized PLPC/unmodified PLPC at 2 mg/ml incubated in dark for 1 hr to 7 days by mass spectroscopic analysis
[9] = Antioxidant activity assessed as inhibition of fenton reaction-mediated PLPC peroxidation by measuring ratio of [dMPC + H]+/[PLPC + H]+ at 2 mg/ml incubated in dark for 1 hr to 7 days by mass spectroscopic analysis
[10] = Antioxidant activity assessed as DPPH free radical scavenging activity by measuring trolox equivalent at 1.5 to 35 umol/L after 60 mins
[11] = Antioxidant activity assessed as AAPH free radical scavenging activity by measuring trolox equivalent at 0.5 to 10 umol/L measured every min during 240 mins by fluorescein-based oxygen radical absorption capacity assay
[12] = Antioxidant activity assessed as AAPH free radical scavenging activity by measuring trolox equivalent at 12.5 to 100 umol/L measured every min during 240 mins by fluorescein-based oxygen radical absorption capacity assay
[13] = Antioxidant activity assessed as AAPH free radical scavenging activity by measuring trolox equivalent at 1.5 to 35 umol/L measured every min during 240 mins by fluorescein-based oxygen radical absorption capacity assay
[14] = Antioxidant activity assessed as inhibition of fenton reaction-mediated PLPC peroxidation by measuring ratio of [dMPC + H]+/[PLPC + H]+ at 1 mg/ml incubated in dark for 1 hr to 7 days by mass spectroscopic analysis
[15] = Antioxidant activity assessed as inhibition of fenton reaction-mediated PLPC peroxidation at 1 mg/ml incubated in dark for 3 days by mass spectroscopic analysis
[16] = Antioxidant activity assessed as DPPH free radical scavenging activity by measuring trolox equivalent at 10 to 100 umol/L after 60 mins
[17] = Antioxidant activity assessed as DPPH free radical scavenging activity by measuring trolox equivalent at 5 to 35 umol/L after 60 mins

In the case of `Cc1c(C)c2c(c(C)c1O)CCC(C)(C(=O)O)O2` (stereo not given) [TROLOX], the IC50 [1] is reported as 4.2 µM and the IC50 [2] is reported as 52.2 µM.
In the case of `O=C(/C=C/C=C/c1ccccc1)c1ccccc1`, the inhibition [3] is reported as “Active”, the Activity [4] is reported as 0.06 equiv and the inhibition [5] is reported as “Active”.
With `COc1cc(/C=C/C(=O)CC(=O)/C=C/c2ccc(O)c(OC)c2)ccc1O` [CURCUMIN] the inhibition [6] was “Active”, the inhibition [7] was “Active” and the inhibition [8] was “Active”. For the same compound, the inhibition [9] was “Active”, the IC50 [1] was 1.8 µM and the Activity [10] was 1.42 equiv. For the same compound, the IC50 [2] was 32.5 µM and the Activity [11] was 3.9 equiv.
With `O=C(/C=C/c1ccccc1)c1ccccc1` the Activity [4] was 0.049 equiv.
With `COc1ccc(C(=O)/C=C/C=C/c2ccccc2)cc1` the Activity [12] was 0.12 equiv.
Work on `O=C(/C=C/C=C/c1ccccc1)c1ccc(O)cc1` yielded an Activity [13] of 4.1 equiv.
With `COc1ccc(/C=C/C=C/C(=O)c2ccccc2)cc1` the inhibition [3] was “Active”, the Activity [12] was 0.17 equiv and the inhibition [14] was “Active”. The inhibition [15] was “Active”.
With `O=C(/C=C/C=C/c1ccc(O)cc1)c1ccccc1` the inhibition [3] was “Active”, the IC50 [1] was 1.2 µM and the Activity [13] was 4.8 equiv. For the same compound, the Activity [16] was 0.29 equiv, the inhibition [5] was “Active” and the IC50 [2] was 32.5 µM.
`N#CC(C#N)C(/C=C/c1ccccc1)CC(=O)c1ccccc1` (stereo not given) showed an Activity [17] of 0.9 equiv, an IC50 [1] of 3.3 µM and an Activity [13] of 2.7 equiv. The IC50 [2] was 74 µM.
